# Assays:
# Type in all cases: cell-based
# CXCR3 [1] = target: T1, CXCR3 (Homo sapiens, UniProt P49682); experiment: Chemotaxis assay IP10, L1.2 recombinant cells expressing hCXCR3; settings: L1.2 hCXCR3 cells, IP10 around 0.3 nM, 4 hours
# T1 sequence (P49682 1-368): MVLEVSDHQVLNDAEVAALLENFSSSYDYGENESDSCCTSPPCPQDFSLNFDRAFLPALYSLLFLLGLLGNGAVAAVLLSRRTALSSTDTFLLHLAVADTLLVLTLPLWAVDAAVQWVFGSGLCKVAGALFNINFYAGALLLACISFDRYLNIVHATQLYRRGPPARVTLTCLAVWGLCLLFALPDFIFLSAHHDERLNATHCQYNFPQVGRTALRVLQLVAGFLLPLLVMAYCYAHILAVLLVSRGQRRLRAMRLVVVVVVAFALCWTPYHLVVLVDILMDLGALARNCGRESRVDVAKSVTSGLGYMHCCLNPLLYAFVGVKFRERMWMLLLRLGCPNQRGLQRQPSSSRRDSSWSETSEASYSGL
# Procedure: (§1) Human CXCR3 cDNA was amplified by PCR from a human cells cDNA library (Clontech) and subcloned into pcDNA3.1 (Invitrogen). Murine pre-B L1.2 cells were transfected with hCXCR3-pcDNA3.1 and were grown at 37° C., 5% CO2 in RPMI 1640 medium (Invitrogen, USA) supplemented with 5% heat inactivated fetal calf serum (Cancerra, Australia), 2 mM glutamine (Invitrogen), 50 units ml−1 penicillin, 50 μml−1 streptomycin. Stable transfectant clonal populations were selected using 800 μg/ml geneticin.
# L1.2 recombinant cells expressing the receptor hCXCR3 were maintained in culture in RPMI 1640 (invitrogen), 5% Foetal Bovine Serum (invitrogen), 2 mM glutamine(invitrogen), 50 u/ml penicillin/streptomycin (invitrogen), at 37° C.-5% CO2—in an H2O saturated incubator. In order to stimulate the expression of the receptor, cells were incubated overnight with 5 mM butyric acid (Sigma)
# This mix of cells/compounds was then incubated at 37° C.-5% CO2—in an H2O saturated incubator during 30 minutes. Cells were then dispensed as a drop on each corresponding wells of the chemotaxis system. Cell migration was then induced at 37° C.-5% CO2—in an H2O incubator during 4 hours. Filters were then removed and cells that had migrated were transferred in a black plate (Costar). The plates were stored overnight at −80° C. Cell migration ratio was calculated using the cyquant dye (Molecular Probes-C7026).
# CXCR3 [2] = target: T1, CXCR3; experiment: CXCR3 Ca2+ mobilization (FLIPR), stable hCXCR3-CHO cell line, I-TAC stimulated; set-up: host or cells: CHO cells stably expressing hCXCR3; settings: hCXCR3-CHO cells, I-TAC 100 nM stimulated Ca2+ response; read-out: Ca-ITAC
# Procedure, shortened: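 Ca2+ mobilization triggered by I-TAC (100 nM) measured by FLIPR in a stable hCXCR3-CHO line. Dye-loaded (60 min) cells preincubated with compounds 20 minutes at room temperature; antagonism given relative to the compound-free I-TAC signal set at 100%.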
# CXCR3 [3] = target: T1, CXCR3; experiment: Chemotaxis assay ITAC (CXCL11), L1.2-CXCR3 cells; set-up: expressed in transfected cells; settings: 1 nM CXCL11 (I-TAC), 4 hours
# Procedure: as §1
# L1.2-CXCR3 cells were grown for 24 hours at 0.5×10^6 cells/ml in chemotaxis medium containing 5 mM butyric acid (Sigma). Compounds were on one hand mixed with 1 nM of CXCL11 (I-TAC) in phenol-red free RPMI 1640 (invitrogen) supplemented with 5% fetal bovine serum in presence of 1% DMSO. The CXCL11/compounds mixture was then added to lower chambers of chemotaxis 96 well microplates (neuroprobe), and framed filters ([…] pore size) were put on top of the lower chambers. Compounds were on the other hand mixed with L1.2 CXCR3 cells and incubated in chemotaxis medium at 1.5×10^6 cells/ml in presence of 1% DMSO at 37° C., 5% CO2 for 30 minutes. Cells/compounds mixture was then added on top of the frame filters and migration was performed at 37° C., 5% CO2 for 4 hours. The number of migrated cells in the bottom chamber was determined using the CyQuant GR dye (Molecular Probe), according to the manufacturer.
IC50 (CXCR3 [1]),IC50 (CXCR3 [2]),IC50 (CXCR3 [3]),SMILES
0.207 µM,175 nM,–,"O=C(NS(=O)(=O)Cc1cccc([N+](=O)[O-])c1)c1ccc(CN(Cc2ccccn2)S(=O)(=O)c2ccc(Cl)cc2)cc1 [Example 50, N-(3-nitrophenylmethanesulfonyl)-4-{[[(4-chlorophenyl)sulfonyl](pyridin-2-yl-methyl)amino]methyl}benzamide]"
4.18 µM,1620 nM,–,CCOc1ccc(S(=O)(=O)N(Cc2ccc(C(=O)O)cc2)Cc2cccnc2)cc1 [Example 157]
0.06 µM,20 nM,–,N#Cc1ccc(S(=O)(=O)N(Cc2ccc(NC(=O)Cc3cccc(Cl)c3)cc2)Cc2ccccn2)cc1 [Example 161]
0.04 µM,30 nM,–,CCOc1ccc(S(=O)(=O)N(Cc2ccc(C(=O)NC3(c4ccccc4)CC3)cc2)Cc2cccnc2)cc1 [Example 93]
0.695 µM,–,–,"O=S(=O)(c1ccc(Cl)cc1)N(Cc1ccc(-c2nnc(O)o2)cc1)Cc1ccccn1 [Example 19, 4-chloro-N-[4-(5-hydroxy-1,3,4-oxadiazol-2-yl)benzyl]-N-(pyridin-2-ylmethyl)benzene sulfonamide]"
0.01 µM,50 nM,–,"CCOc1ccc(S(=O)(=O)N(Cc2ccc(C(=O)N[C@H]3[C@@H]4CN(C(=O)OC(C)(C)C)C[C@@H]43)cc2)Cc2ccccn2)cc1 [Example 89, rac-6-(4-{[(4-Ethoxy-benzenesulfonyl)-pyridin-2-ylmethyl-amino]-methyl}-benzoylamino)-3-aza-bicyclo[3.1.0]hexane-3-carboxylic acid tert-butyl ester]"
2.56 µM,–,–,"O=S(=O)(c1ccc(Cl)cc1)N(Cc1ccc(F)cc1)Cc1ccc(-c2nnn[nH]2)cc1 [Example 22, 4-chloro-N-(4-fluorobenzyl)-N-[4-(1H-tetrazol-5-yl)benzyl]benzenesulfonamide]"
0.51 µM,1000 nM,–,"O=C(NCC1CC1)c1ccc(CN(Cc2ccccc2F)S(=O)(=O)c2ccc(Cl)cc2)cc1 [Example 29, 4-{[(4-Chloro-benzenesulfonyl)-(2-fluoro-benzyl)-amino]-methyl}-N-cyclopropyl methyl benzamide]"
1.15 µM,–,–,"COc1ccc(S(=O)(=O)N(Cc2ccc(C(=O)NCc3cccc(Cl)c3)cc2)Cc2cccnc2)cc1 [Example 9, N-(3-chlorobenzyl)-4-{[[(4-methoxyphenyl)sulfonyl](pyridin-3-ylmethyl)amino]methyl}benzamide]"
2.27 µM,–,–,"O=C(NC[C@@H]1CCCO1)c1ccc(CN(Cc2ccccc2)S(=O)(=O)c2ccc(Cl)cc2)cc1 [Example 3, 4-({benzyl[(4-chlorophenyl)sulfonyl]amino}methyl)-N-[(2S)-tetrahydrofuran-2-ylmethyl]benzamide]"
2.45 µM,–,–,"O=C(NCCc1cccc([N+](=O)[O-])c1)c1ccc(CN(Cc2ccccc2)S(=O)(=O)c2ccc(Cl)cc2)cc1 [Example 4, 4-({benzyl[(4-chlorophenyl)sulfonyl]amino}methyl)-N-[2-(3-nitrophenyl)ethyl]benzamide]"
1.29 µM,–,–,"O=C(NCc1cccc(Cl)c1)c1ccc(CN(Cc2ccccc2)S(=O)(=O)c2ccc(Cl)cc2)cc1 [Example 1, 4-({benzyl[(4-chlorophenyl)sulfonyl]amino}methyl)-N-(3-chlorobenzyl)benzamide]"
3.67 µM,–,–,"O=S(=O)(c1ccc(Cl)cc1)N(Cc1ccc(-c2nnn[nH]2)cc1)Cc1ncco1 [Example 59, 4-chloro-N-(1,3-oxazol-2-ylmethyl)-N-[4-(2H-tetrazol-5-yl)benzyl]benzene sulfonamide]"
–,870 nM,2140 nM,CC(=O)N1C[C@@H]2[C@H](C1)[C@H]2NC(=O)c1ccc(CN(Cc2ccccn2)S(=O)(=O)c2ccc(C#N)cc2)cc1 [Example 119]
–,300 nM,30 nM,CC(=O)NC(C(=O)Nc1ccc(CN(Cc2ccccn2)S(=O)(=O)c2ccc(Cl)cc2)cc1)c1ccccc1 (centres unmarked) [Example 185]
–,2000 nM,4600 nM,"CCOc1ccc(S(=O)(=O)N(Cc2ccc(C(=O)O)c(F)c2)Cc2ccccn2)cc1 [Example 66, 4-{[(4-Ethoxy-benzenesulfonyl)-pyridin-2-ylmethyl-amino]-methyl}-2-fluoro-benzoic acid]"
3.87 µM,–,–,"COc1ccc(S(=O)(=O)NC(=O)c2ccc(CN(Cc3ccccn3)S(=O)(=O)c3ccc(Cl)cc3)cc2)cc1 [Example 14, 4-{[[(4-chlorophenyl)sulfonyl](pyridin-2-ylmethyl)amino]methyl}-N-[(4-methoxyphenyl)sulfonyl]benzamide]"
–,5500 nM,2070 nM,CCOc1ccc(S(=O)(=O)N(Cc2ccc(C(=O)N[C@H]3[C@@H]4CN(C(C)=O)C[C@@H]43)cc2)Cc2ccccn2)cc1 [Example 107]

# Second part, the molecule before the results:
SMILES,IC50 (CXCR3 [1]),IC50 (CXCR3 [2]),IC50 (CXCR3 [3])
"O=S(=O)(c1ccc(Cl)cc1)N(Cc1ccc(-c2nnn[nH]2)cc1)Cc1ccccc1F [Example 20, 4-chloro-N-(2-fluorobenzyl)-N-[4-(1H-tetrazol-5-yl)benzyl]benzene sulfonamide]",0.47 µM,–,–
N#Cc1ccc(S(=O)(=O)N(Cc2ccc(C(=O)NCCc3cccc(Cl)c3)cc2)Cc2ccccn2)cc1 [Example 97],0.05 µM,70 nM,–
"O=S(=O)(c1ccc(Cl)cc1)N(Cc1ccc(-c2nnn[nH]2)cc1)Cc1cccc(Cl)c1 [Example 21, 4-chloro-N-(3-chlorobenzyl)-N-[4-(1H-tetrazol-5-yl)benzyl]benzenesulfonamide]",1.29 µM,–,–
"COc1cccc(CN(Cc2ccc(-c3nnn[nH]3)cc2)S(=O)(=O)c2ccc(Cl)cc2)c1 [Example 23, 4-chloro-N-(3-methoxybenzyl)-N-[4-(1H-tetrazol-5-yl)benzyl]benzene sulfonamide]",1.46 µM,–,–
"Cc1noc(C)c1CN(Cc1ccc(-c2nnn[nH]2)cc1)S(=O)(=O)c1ccc(Cl)cc1 [Example 58, 4-chloro-N-[(3,5-dimethylisoxazol-4-yl)methyl]-N-[4-(2H-tetrazol-5-yl)benzyl]benzene sulfonamide]",1.43 µM,–,–
"COc1ccc(CN(Cc2ccc(-c3nnn[nH]3)cc2)S(=O)(=O)c2ccc(Cl)cc2)cc1 [Example 24, 4-Chloro-N-(4-methoxy-benzyl)-N-[4-(1H-tetrazol-5-yl)-benzyl]-benzenesulfonamide]",0.885 µM,–,–
"O=S(=O)(c1ccc(Cl)cc1)N(Cc1ccc(Cl)cc1)Cc1ccc(-c2nnn[nH]2)cc1 [Example 25, 4-chloro-N-(4-chlorobenzyl)-N-[4-(1H-tetrazol-5-yl)benzyl]benzenesulfonamide]",0.882 µM,–,–
N#Cc1ccc(S(=O)(=O)N(Cc2ccc(C(=O)NCC3CC3)cc2)Cc2ccccn2)cc1 [Example 43],0.36 µM,4750 nM,–
"O=C(NS(=O)(=O)Cc1cccc([N+](=O)[O-])c1)c1ccc(CN(Cc2ccccc2)S(=O)(=O)c2ccc(Cl)cc2)cc1 [Example 15, 4-({benzyl[(4-chlorophenyl)sulfonyl]amino}methyl)-N-[(3-nitrobenzyl)sulfonyl]benzamide]",2.42 µM,–,–
Cc1nnc(CNC(=O)c2ccc(CN(Cc3ccccn3)S(=O)(=O)c3ccc(C#N)cc3)cc2)o1 [Example 142],–,10000 nM,4180 nM
O=S(=O)(c1cccc(-c2ccccc2)c1)N(Cc1ccc(-c2nnn[nH]2)cc1)Cc1ccccn1 [Example 166],–,1430 nM,9050 nM
N#Cc1ccc(S(=O)(=O)N(Cc2ccc(C(=O)NC3(c4ccccc4)CC3)cc2)Cc2cccnc2)cc1 [Example 113],–,320 nM,1300 nM
N#Cc1cccc(CN(Cc2ccccn2)S(=O)(=O)c2ccc(Cl)cc2)c1 [Example 195],–,4200 nM,6810 nM
